Experimental findings from US20100022491A1, “4-HYDROXY-2-OXO-2,3-DIHYDRO-1,3-BENZOTHIAZOL-7YL COMPOUNDS FOR MODULATION OF B2-ADRENORECEPTOR ACTIVITY” (ASTRAZENECA AB, priority 2006, published 2010) are described below.

For assay [1], the target named is T1, recombinant human Dopamine Subtype D2s receptors (Homo sapiens, UniProt P14416).
T1 construct: purchased Perkin Elmer
The experiment in a line: Dopamine D2 selectivity binding assay ([3H]-spiperone). The following applies: inhibition of [3H]-spiperone (0.16 nM) binding; read-out: D2 bind pIC50 (converted). Summed up:
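Recombinant human D2s membranes incubated 2 h at room temperature with 0.16 nM [3H]-spiperone in HEPES/EDTA/NaCl/gelatin buffer, pH 7.4; 10 μM haloperidol defined non-specific binding. Filter-bound radioactivity counted after cold washes. pIC50 from 4-parameter logistic fit of NSB-corrected specific binding.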

Assay [2] concerns the target T2, recombinant human adrenergic beta 1 receptors (Homo sapiens, UniProt P08588).
T2 construct: purchased Euroscreen
The assay is described as follows: Adrenergic β1 selectivity binding assay ([125I]-Iodocyanopindolol). The following applies: inhibition of [125I]-Iodocyanopindolol (0.036 nM) binding; read-out: β1 bind p IC50 (converted). In outline:
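Recombinant human β1 membranes in HEPES buffer pH 7.4 with 120 mM NaCl were incubated 2 hours at room temperature with 0.036 nM [^125I]-Iodocyanopindolol. Nonspecific binding defined by 10 μM propranolol; bound radioactivity counted after filtration. pIC50 from four-parameter logistic fit.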

Where a name gives a salt, the structure may show the parent alone.

T1 sequence (P14416 1-414 isoform P14416-2): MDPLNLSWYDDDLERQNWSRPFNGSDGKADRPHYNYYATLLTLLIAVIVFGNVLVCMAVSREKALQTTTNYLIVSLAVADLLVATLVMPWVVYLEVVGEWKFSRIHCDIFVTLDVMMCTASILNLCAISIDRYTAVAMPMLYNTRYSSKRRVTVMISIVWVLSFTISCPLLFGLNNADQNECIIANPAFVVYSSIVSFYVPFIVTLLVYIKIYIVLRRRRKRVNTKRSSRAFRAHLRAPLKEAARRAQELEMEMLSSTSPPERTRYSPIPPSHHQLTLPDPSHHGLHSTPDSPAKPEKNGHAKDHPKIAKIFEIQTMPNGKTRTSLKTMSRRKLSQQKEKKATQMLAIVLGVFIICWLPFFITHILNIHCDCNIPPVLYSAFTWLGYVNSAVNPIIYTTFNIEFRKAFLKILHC
T2 sequence (P08588 whole entry): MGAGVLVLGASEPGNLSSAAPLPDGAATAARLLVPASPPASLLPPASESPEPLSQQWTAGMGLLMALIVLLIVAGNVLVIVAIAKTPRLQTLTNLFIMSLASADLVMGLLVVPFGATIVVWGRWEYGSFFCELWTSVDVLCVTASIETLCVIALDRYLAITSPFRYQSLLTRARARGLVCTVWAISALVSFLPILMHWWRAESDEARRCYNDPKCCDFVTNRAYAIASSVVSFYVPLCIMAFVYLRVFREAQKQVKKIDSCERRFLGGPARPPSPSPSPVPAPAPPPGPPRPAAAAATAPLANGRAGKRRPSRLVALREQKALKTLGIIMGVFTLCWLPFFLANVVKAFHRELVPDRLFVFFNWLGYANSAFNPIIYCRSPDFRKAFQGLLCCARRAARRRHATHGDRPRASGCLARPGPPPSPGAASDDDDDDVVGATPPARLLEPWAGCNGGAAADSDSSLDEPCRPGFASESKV

As to `O=C(CCNCCc1ccccc1)N(CCNCCc1ccc(O)c2[nH]c(=O)sc12)C1Cc2ccccc2C1` [Example 41, N^1-(2,3-Dihydro-1H-inden-2-yl)-N^1-(2-{[2-(4-hydroxy-2-oxo-2,3-dihydro-1,3-benzothiazol-7-yl)ethyl]amino}ethyl)-N^3-(2-phenylethyl)-β-alaninamide bis-trifluoroacetic acid salt], the IC50 was 200 nM in assay [1] and 1580 nM in assay [2].
In the same order, the values of `O=C(CCNCCc1cccc(Cl)c1)N(CCNCCc1ccc(O)c2[nH]c(=O)sc12)C1Cc2ccccc2C1` [Example 42, N^3-[2-(3-Chlorophenyl)ethyl]-N^1-(2,3-dihydro-1H-inden-2-yl)-N^1-(2-{[2-(4-hydroxy-2-oxo-2,3-dihydro-1,3-benzothiazol-7-yl)ethyl]amino}ethyl)-β-alaninamide bis-trifluoroacetic acid salt] are 100 nM and 1260 nM.
Take `COc1cccc(CCNCCC(=O)N(CCNCCc2ccc(O)c3[nH]c(=O)sc23)CC(C)(C)C)c1` [Example 43, N^1-(2,2-Dimethylpropyl)-N^1-(2-{[2-(4-hydroxy-2-oxo-2,3-dihydro-1,3-benzothiazol-7-yl)ethyl]amino}ethyl)-N^3-[2-(3-methoxyphenyl)ethyl]-β-alaninamide bis-trifluoroacetic acid salt]: the IC50 in assay [1] was 200 nM; in assay [2], 5010 nM.
On the same counts, the results for `CC(C)(C)CN(CCNCCc1ccc(O)c2[nH]c(=O)sc12)C(=O)CCNCCc1cccc(F)c1` [Example 44, N^1-(2,2-Dimethylpropyl)-N^3-[2-(3-fluorophenyl)ethyl]-N^1-(2-{[2-(4-hydroxy-2-oxo-2,3-dihydro-1,3-benzothiazol-7-yl)ethyl]amino}ethyl)-β-alaninamide bis-trifluoroacetic acid salt] are 126 nM and 5010 nM.
In the same order, the values of `CC(C)(CN(CCNCCc1ccc(O)c2[nH]c(=O)sc12)C(=O)CCNCCc1ccccc1)c1ccccc1` [Example 45, N^1-(2-{[2-(4-Hydroxy-2-oxo-2,3-dihydro-1,3-benzothiazol-7-yl)ethyl]amino}ethyl)-N^1-(2-methyl-2-phenylpropyl)-N^3-(2-phenylethyl)-β-alaninamide bis-trifluoroacetic acid salt] are 251 nM and 1260 nM.
On the same counts, the results for `O=C(CCNCCc1ccccc1Cl)N(CCNCCc1ccc(O)c2[nH]c(=O)sc12)C1CCC(F)(F)CC1` [Example 46, N^3-[2-(2-Chlorophenyl)ethyl]-N^1-(4,4-difluorocyclohexyl)-N^1-(2-{[2-(4-hydroxy-2-oxo-2,3-dihydro-1,3-benzothiazol-7-yl)ethyl]amino}ethyl)-β-alaninamide bis-trifluoroacetic acid salt] are 39.8 nM and 1580 nM.
With `O=C(CCNCCc1cccc(Cl)c1)N(CCNCCc1ccc(O)c2[nH]c(=O)sc12)C1CCC(F)(F)CC1` [Example 47, N^3-[2-(3-Chlorophenyl)ethyl]-N^1-(4,4-difluorocyclohexyl)-N^1-(2-{[2-(4-hydroxy-2-oxo-2,3-dihydro-1,3-benzothiazol-7-yl)ethyl]amino}ethyl)-β-alaninamide bis-trifluoroacetic acid salt], the IC50 in assay [1] was 158 nM; in assay [2] it was 1260 nM.
On the same counts, the results for `O=C(CCNCCc1ccc(Cl)cc1)N(CCNCCc1ccc(O)c2[nH]c(=O)sc12)C1CCC(F)(F)CC1` [Example 48, N^3-[2-(4-Chlorophenyl)ethyl]-N^1-(4,4-difluorocyclohexyl)-N^1-(2-{[2-(4-hydroxy-2-oxo-2,3-dihydro-1,3-benzothiazol-7-yl)ethyl]amino}ethyl)-β-alaninamide bis-trifluoroacetic acid salt] are 100 nM and 2510 nM.
In the same order, the values of `O=C(CCNCCc1cccc(Cl)c1)N(CCNCCc1ccc(O)c2[nH]c(=O)sc12)C1CCCCCC1` [Example 50, N^3-[2-(3-Chlorophenyl)ethyl]-N^1-cycloheptyl-N^1-(2-{[2-(4-hydroxy-2-oxo-2,3-dihydro-1,3-benzothiazol-7-yl)ethyl]amino}ethyl)-β-alaninamide bis-trifluoroacetic acid salt] are 31.6 nM and 794 nM.
Take `O=C(CCNCCc1ccc(Cl)cc1)N(CCNCCc1ccc(O)c2[nH]c(=O)sc12)C1CCCCCC1` [Example 51, N^3-[2-(4-Chlorophenyl)ethyl]-N^1-cycloheptyl-N^1-(2-{[2-(4-hydroxy-2-oxo-2,3-dihydro-1,3-benzothiazol-7-yl)ethyl]amino}ethyl)-β-alaninamide bis-trifluoroacetic acid salt]: the IC50 in assay [1] is 25.1 nM; in assay [2], 2510 nM.
For `O=C(CCNCCc1cccs1)N(CCNCCc1ccc(O)c2[nH]c(=O)sc12)C1CCCCCC1` [Example 52, N^1-Cycloheptyl-N^1-(2-{[2-(4-hydroxy-2-oxo-2,3-dihydro-1,3-benzothiazol-7-yl)ethyl]amino}ethyl)-N^3-[2-(2-thienyl)ethyl]-β-alaninamide bis-trifluoroacetic acid salt], the values for the IC50 in assay [1] and in assay [2] were 39.8 nM and 1580 nM, respectively.
In the same order, the values of `O=C(CCNCCc1ccc(F)c(F)c1)N(CCNCCc1ccc(O)c2[nH]c(=O)sc12)C1CCCCCC1` [Example 53, N^1-Cycloheptyl-N^1-[2-(3,4-difluorophenyl)ethyl]-N^1-(2-{[2-(4-hydroxy-2-oxo-2,3-dihydro-1,3-benzothiazol-7-yl)ethyl]amino}ethyl)-β-alaninamide bis-trifluoroacetic acid salt] are 79.4 nM and 3980 nM.
For the compound `O=C(CCNCCc1cccc(OC(F)F)c1)N(CCNCCc1ccc(O)c2[nH]c(=O)sc12)C1CCCCCC1` [Example 54, N-Cycloheptyl-N^3-{2-[3-(difluoromethoxy)phenyl]ethyl}-N^1-(2-{[2-(4-hydroxy-2-oxo-2,3-dihydro-1,3-benzothiazol-7-yl)ethyl]amino}ethyl)-β-alaninamide bis-trifluoroacetic acid salt], the IC50 was 50.1 nM in assay [1] and 2510 nM in assay [2].
In the same order, the values of `O=C(CCNCCc1ccc(F)cc1F)N(CCNCCc1ccc(O)c2[nH]c(=O)sc12)C1CCCCCC1` [Example 55, N^1-Cycloheptyl-N^3-[2-(2,4-difluorophenyl)ethyl]-N^1-(2-{[2-(4-hydroxy-2-oxo-2,3-dihydro-1,3-benzothiazol-7-yl)ethyl]amino}ethyl)-β-alaninamide bis-trifluoroacetic acid salt] are 20 nM and 2510 nM.
On the same counts, the results for `O=C(CCNCCc1cccc(F)c1F)N(CCNCCc1ccc(O)c2[nH]c(=O)sc12)C1CCCCCC1` [Example 56, N^1-Cycloheptyl-N^3-[2-(2,3-difluorophenyl)ethyl]-N^1-(2-{[2-(4-hydroxy-2-oxo-2,3-dihydro-1,3-benzothiazol-7-yl)ethyl]amino}ethyl)-β-alaninamide bis-trifluoroacetic acid salt] are 31.6 nM and 3160 nM.
In the same order, the values of `O=C(CCNCCc1ccc(F)cc1Cl)N(CCNCCc1ccc(O)c2[nH]c(=O)sc12)C1CCCCCC1` [Example 57, N^3-[2-(2-Chloro-4-fluorophenyl)ethyl]-N^1-cycloheptyl-N^1-(2-{[2-(4-hydroxy-2-oxo-2,3-dihydro-1,3-benzothiazol-7-yl)ethyl]amino}ethyl)-β-alaninamide bis-trifluoroacetic acid salt] are 31.6 nM and 2510 nM.
`O=C(CCNCCc1cc(F)cc(F)c1)N(CCNCCc1ccc(O)c2[nH]c(=O)sc12)C1CCCCCC1` [Example 58, N^1-Cycloheptyl-N^3-[2-(3,5-difluorophenyl)ethyl]-N^1-(2-{[2-(4-hydroxy-2-oxo-2,3-dihydro-1,3-benzothiazol-7-yl)ethyl]amino}ethyl)-β-alaninamide bis-trifluoroacetic acid salt]: the IC50 was 158 nM in assay [1] and 5010 nM in assay [2].
Consider `O=C(CCNCCc1ccccc1)N(CCNCCc1ccc(O)c2[nH]c(=O)sc12)CC12CC3CC(CC(C3)C1)C2` [Example 59, N^1-(1-Adamantylmethyl)-N^1-(2-{[2-(4-hydroxy-2-oxo-2,3-dihydro-1,3-benzothiazol-7-yl)ethyl]amino}ethyl)-N^3-(2-phenylethyl)-β-alaninamide bis-trifluoroacetic acid salt], for which the IC50 in assay [1] was 398 nM; in assay [2], 794 nM.
For `O=C(CCNCCc1cccc(F)c1)N(CCNCCc1ccc(O)c2[nH]c(=O)sc12)CC12CC3CC(CC(C3)C1)C2` [Example 60, N^1-(1-Adamantylmethyl)-N^3-[2-(3-fluorophenyl)ethyl]-N^1-(2-{[2-(4-hydroxy-2-oxo-2,3-dihydro-1,3-benzothiazol-7-yl)ethyl]amino}ethyl)-β-alaninamide bis-trifluoroacetic acid salt], the IC50 in assay [1] was 794 nM; in assay [2], 2000 nM.
On the same counts, the results for `O=C(CCNCCc1ccc(F)cc1)N(CCNCCc1ccc(O)c2[nH]c(=O)sc12)CC12CC3CC(CC(C3)C1)C2` [Example 61, N^1-(1-Adamantylmethyl)-N^3-[2-(4-fluorophenyl)ethyl]-N^1-(2-{[2-(4-hydroxy-2-oxo-2,3-dihydro-1,3-benzothiazol-7-yl)ethyl]amino}ethyl)-β-alaninamide bis-trifluoroacetic acid salt] are 794 nM and 2510 nM.
